Where two headings read alike, the source gives them in different places.
What was measured:
[1] = tested on: β-alanine aminopeptidase; experiment: APIZYM-type test strips with β-alanyl-β-naphthylamide; assay type: cell-based; settings: Achroniobacter xylosoxidans spp. denitrificans; five strains
[2] = tested on: β-alanine aminopeptidase; experiment: as above; assay type: cell-based; settings: Salmonella paratyphi A; five strains
[3] = tested on: β-alanine aminopeptidase; experiment: as above; assay type: cell-based; settings: Salmonella typhi; five strains
[4] = tested on: β-alanine aminopeptidase; experiment: as above; assay type: cell-based; settings: Comamonas testosteroni; five strains
[5] = tested on: β-alanine aminopeptidase; experiment: as above; assay type: cell-based; settings: Moraxella non liquefaciens; 13 strains
[6] = tested on: β-alanine aminopeptidase; experiment: as above; assay type: cell-based; settings: Enterobacter gergoviae; five strains
[7] = tested on: β-alanine aminopeptidase; experiment: as above; assay type: cell-based; settings: Pasteurella gallinarum; 1 strain
[8] = tested on: β-alanine aminopeptidase; experiment: as above; assay type: cell-based; settings: Serratia liquefaciens; five strains
[9] = tested on: β-alanine aminopeptidase; experiment: as above; assay type: cell-based; settings: Pseudomonas oryzihabitans; five strains
[10] = tested on: β-alanine aminopeptidase; experiment: as above; assay type: cell-based; settings: Pasteurella aerogenes; five strains
[11] = tested on: β-alanine aminopeptidase; experiment: as above; assay type: cell-based; settings: Plesiomonas shigelloïdes; five strains
[12] = tested on: β-alanine aminopeptidase; experiment: as above; assay type: cell-based; settings: Aeromonas hydrophila; five strains
[13] = tested on: β-alanine aminopeptidase; experiment: as above; assay type: cell-based; settings: Pseudomonas putida; five strains
[14] = tested on: β-alanine aminopeptidase; experiment: as above; assay type: cell-based; settings: Empedobacter brevis; 3 strains
[15] = tested on: β-alanine aminopeptidase; experiment: as above; assay type: cell-based; settings: Comamonas acidovorans; five strains
[16] = tested on: β-alanine aminopeptidase; experiment: as above; assay type: cell-based; settings: CDC IV C2; five strains
[17] = tested on: β-alanine aminopeptidase; assay type: cell-based; settings: Yersinia pseudotuberculosis; five strains
[18] = tested on: β-alanine aminopeptidase; experiment: APIZYM-type test strips with β-alanyl-β-naphthylamide; assay type: cell-based; settings: Pseudomonas luteola; five strains
[19] = tested on: β-alanine aminopeptidase; experiment: as above; assay type: cell-based; settings: Klebsiella ozaenae; five strains
[20] = tested on: β-alanine aminopeptidase; experiment: as above; assay type: cell-based; settings: Sphingomonas paucimobilis; five strains
[21] = tested on: β-alanine aminopeptidase; experiment: as above; assay type: cell-based; settings: Actinobacillus ureae; 1 strain
[22] = tested on: β-alanine aminopeptidase; experiment: as above; assay type: cell-based; settings: Pseudomonas fluorescens; five strains
[23] = tested on: β-alanine aminopeptidase; experiment: as above; assay type: cell-based; settings: Moraxella lac. sp. liquefaciens; 7 strains
[24] = tested on: β-alanine aminopeptidase; experiment: as above; assay type: cell-based; settings: Serratia fonticola; five strains
[25] = tested on: β-alanine aminopeptidase; experiment: as above; assay type: cell-based; settings: Alcaligenes faecalis/odorans; five strains
[26] = tested on: β-alanine aminopeptidase; settings: Enterococcus faecium; 2 strains tested; read after 22 to 24 hours
[27] = tested on: β-alanine aminopeptidase; settings: Proteus mirabilis; 2 strains tested; read after 22 to 24 hours
[28] = tested on: β-alanine aminopeptidase; settings: Enterococcus faecalis; 2 strains tested; read after 22 to 24 hours
[29] = tested on: β-alanine aminopeptidase; settings: Ralstonia pickettii; 1 strain tested; read after 22 to 24 hours
[30] = tested on: β-alanine aminopeptidase; settings: Klebsiella oxytoca; 2 strains tested; read after 22 to 24 hours
[31] = tested on: β-alanine aminopeptidase; settings: Salmonella arizonae; 1 strain tested; read after 22 to 24 hours
[32] = tested on: β-alanine aminopeptidase; settings: Moraxella non liquefaciens; 2 strains tested; read after 22 to 24 hours
[33] = tested on: β-alanine aminopeptidase; settings: Enterobacter cloacae; 2 strains tested; read after 22 to 24 hours
[34] = tested on: β-alanine aminopeptidase; settings: Klebsiella pneumoniae; 3 strains tested; read after 22 to 24 hours
[35] = tested on: β-alanine aminopeptidase; settings: Citrobacter amalonaticus; 2 strains tested; read after 22 to 24 hours
[36] = tested on: β-alanine aminopeptidase; settings: Streptococcus agalactiae; 1 strain tested; read after 22 to 24 hours
[37] = tested on: β-alanine aminopeptidase; settings: Pseudomonas stutzeri; 3 strains tested; read after 22 to 24 hours

β-alanyl-β-naphthylamide
β-alanine aminopeptidase activity, result [1]: negative
β-alanine aminopeptidase activity, result [2]: negative
β-alanine aminopeptidase activity, result [3]: negative
β-alanine aminopeptidase activity, result [4]: negative
β-alanine aminopeptidase activity, result [5]: negative
β-alanine aminopeptidase activity, result [6]: negative
β-alanine aminopeptidase activity, result [7]: negative
β-alanine aminopeptidase activity, result [8]: positive
β-alanine aminopeptidase activity, result [9]: negative
β-alanine aminopeptidase activity, result [10]: negative
β-alanine aminopeptidase activity, result [11]: negative
β-alanine aminopeptidase activity, result [12]: negative
β-alanine aminopeptidase activity, result [13]: negative
β-alanine aminopeptidase activity, result [14]: negative
β-alanine aminopeptidase activity, result [15]: negative
β-alanine aminopeptidase activity, result [16]: negative
β-alanine aminopeptidase activity, result [17]: negative
β-alanine aminopeptidase activity, result [18]: negative
β-alanine aminopeptidase activity, result [19]: negative
β-alanine aminopeptidase activity, result [20]: negative
β-alanine aminopeptidase activity, result [21]: negative
β-alanine aminopeptidase activity, result [22]: positive
β-alanine aminopeptidase activity, result [23]: negative
β-alanine aminopeptidase activity, result [24]: negative
β-alanine aminopeptidase activity, result [25]: negative

NCCC(=O)c1c(N)cc(Cl)c(O)c1Cl
Number of negative results [26]: 2
Number positive results [26]: 0
Number of negative results [27]: 2
Number positive results [27]: 0
Number of negative results [28]: 2
Number positive results [28]: 0
Number of negative results [29]: 1
Number positive results [29]: 0
Number of negative results [30]: 2
Number positive results [30]: 0
Number of negative results [31]: 1
Number positive results [31]: 0
Number of negative results [32]: 2
Number positive results [32]: 0
Number of negative results [33]: 2
Number positive results [33]: 0
Number of negative results [34]: 3
Number positive results [34]: 0
Number of negative results [35]: 2
Number positive results [35]: 0
Number of negative results [36]: 1
Number positive results [36]: 0
Number of negative results [37]: 3
Number positive results [37]: 0
